Here are results for 89 molecules from a melting point compilation (Tetko et al.; mined from patent text by program, amines drawn as free bases though some values may be those of a salt).

Residues, ends and D or L forms follow the SMILES beside them. *: point of attachment. Boc = CC(C)(C)OC(=O)*; OBn = c1ccc(CO*)cc1; βAla = NCCC(=O)O

Usually melting point stands for the temperature of the solid-liquid transition.

Molecule `O=C1c2cccc([N+](=O)[O-])c2C(=O)c2cccc(O)c21` yielded a melting point of 299 to 302 °C.
Regarding `COc1ccc2[nH]c(=O)[nH]c(=O)c2c1OC`, the melting point lay within 266 to 268 °C.
Molecule `CC(C)OC(=O)c1cc2c(cn1)[nH]c1cccc(Cc3ccccc3Cl)c12` registered a melting point of 258 to 260 °C.
The molecule `COC(=S)c1cc(N)ccc1C` showed a melting point of 96 to 98 °C.
Next, `CC(=O)NC[C@H]1CN(c2ccc(N3CCC(=C(C#N)n4ccnc4)CC3)c(F)c2)C(=O)O1`: 196 to 198 °C.
Next, `O=C(C(=O)c1ccc(Oc2ccc(O)cc2)cc1)c1ccc(Oc2ccc(O)cc2)cc1`: 220 to 221 °C; `O=S(=O)(NCCc1ccc(CCl)cc1)c1ccc(Cl)cc1`: 96 to 98 °C.
Then `N#CC(C#N)=C1C=C(c2ccccc2)S(=O)(=O)C(c2cccs2)=C1`, with 214 to 232 °C; and `Cc1cccc(Oc2c[nH]c(=S)[nH]c2=O)c1`, with 210 °C.
For the molecule `COc1ccc(N2C(=O)N(c3cccc(C#N)c3)c3nc(Nc4cccc(CCOC(C)=O)c4)ncc3C2C)cc1` (centres undefined), the melting point was in the range of 170 to 172 °C.
In turn, `Cc1oncc1C(=O)c1ccc(Cl)cc1` gave a melting point of 65 to 66 °C.
Next, `OC(c1ccc(F)cc1)c1ccc2noc(-c3cccc(Cl)c3)c2c1` (centres undefined): 171 °C; `O=[N+]([O-])c1cc(Cl)c(OCC(F)(F)F)cc1F`: 54 to 55 °C.
Take `O=[N+]([O-])c1ccnc(N2CCNCC2)c1`: the melting point fell in the range of 92 to 93 °C.
Then `CCCCCCCCCCCCCCCCCC(=O)N1CC(O)C1`, with 86 to 87.5 °C; and `CCc1nnc(C(Cc2ccc(OCCc3nc(-c4ccccc4)oc3C)cc2)c2ccccc2)o1` (centres undefined), with 110 °C.
Then `COc1cccc(C2C(=O)NC(=O)C2c2cn3c4c(cccc24)CCC3)c1` (centres undefined), with 87 to 91 °C; and `O=C(NCc1cccnc1)Nc1ccc(S)cc1`, with 155 to 159 °C; and `CCCOC(=O)Cc1ccc(N[C@@H](CCC(N)=O)C(=O)O)cc1`, with 178 to 179 °C.
Next, `O=C(c1cnccn1)N1CCCC(c2ccccc2)=N1`: 98 to 100 °C; `CCN(C)c1nsc(N)c1C#N`: 94 to 95 °C; `O=C(NCCNc1c(Cl)cncc1Cl)C1CCN(c2c(Cl)cncc2Cl)CC1`: 157 to 159 °C.
In the case of `O=C(O)CCNC(=O)C(=Cc1cc(F)cc(F)c1)CS`, the melting point came out at 125 °C.
Then `OC1(Cn2cncn2)C(Cc2ccc(F)cc2)CCC12CC2` (centres undefined), with 89 to 90 °C; and `CC(=O)N(CC(C)O)c1c(C)cccc1C` (centres undefined), with 64 to 67 °C.
Next, `CC(C)OC(=O)Cn1c(=O)n(C)c(=O)n(-c2cc(N=c3sc(=O)n4n3CCCCC4)c(F)cc2Cl)c1=O`: 95 to 106 °C; `O=c1[nH]c(=O)n2c3c1cnn3C(c1cccc(C(F)(F)F)c1)CC2` (centres undefined): 297 to 300 °C; `O=C(NCCC1=CCCCC1)NCCC1=CCCCC1`: 129 to 131 °C.
`CCS(=O)(=O)CCOc1cc(C)c(-c2cccc(COc3ccc(CCC(=O)O)c(F)c3)c2)c(C)c1` had a melting point of 126 to 127 °C.
Then `Cc1cccc(N2CCN(CCC3CN(C)C(=O)O3)CC2)c1` (centres undefined), with 72 to 74 °C; and `CC(C)c1cccc(C(C)C)c1NC(=O)CN1CCN(CCSc2nc3ccccc3s2)CC1`, with 170 to 171 °C.
The molecule `CC(=O)OS(=O)(=O)c1ccc(C)cc1` came in with a melting point of 56 to 60 °C.
Next, `Clc1nc(SCc2ccccc2)nc2nc[nH]c12`: 176 to 178 °C; `COc1cc(NS(=O)(=O)c2ccc3c(ccn3C)c2)cc(OC)c1OC`: 188 to 189 °C.
Next, `CCC(CC)Oc1cc(C)nc(Nc2c(C)cc(C)cc2C)c1N`: 73 to 75 °C; `Cc1cc(NC(=O)C2CSc3sccc3C2=O)no1` (centres undefined): 143 to 146 °C.
`FC(F)(F)c1cccc(-c2cc(C(F)(F)F)n3ncc(-c4cccnc4)c3n2)c1` showed a melting point of 171 °C.
Next, `Cc1cc(Cl)ccc1N=C1NCCN1`: 137 to 138 °C.
Then `O=S1(=O)c2ccc(F)cc2Oc2cc(OCC(F)(F)F)ccc21`, with 160 to 161 °C; and `CSc1nc(N)n2nc(-c3ccco3)nc2n1`, with 238 to 240 °C.
With `CCOCc1nc2c(N)nc3ccccc3c2n1CCCc1cc(C)no1`, the melting point lay within 163 to 164 °C.
Next, `Cc1nc(NC(=O)c2ccccc2S(C)(=O)=O)sc1C(=O)NCc1ccccc1`: 239 to 242 °C; `CCCN(CCC)C1Cc2cccc3[nH]c(=S)n(c23)C1` (centres undefined): 150 to 151 °C; `CC(C)C[C@H](NS(=O)(=O)c1ccc(N(C)C)cc1)C(=O)N[C@H](C#N)CCc1ccccc1`: 46 to 48 °C.
Then `CCOC(=O)N(C(=S)NC(C)C)c1c(C(C)C)cc(Oc2ccccc2)cc1C(C)C`, with 107 to 108 °C.
Take `CNC(=O)N(C(=O)Nc1ccccc1)c1ccccc1`: the melting point lay in the range of 145 to 147 °C.
Then `COc1cc(CO)ccc1OCc1cn(-c2ccccn2)nc1C`, with 135 to 136 °C; and `CS(=O)(=O)c1ccc(OC2SCC(O)C(O)C2O)cc1` (centres undefined), with 180 °C.
For the molecule `NS(=O)(=O)CCCNc1nc(Cl)ncc1Cl`, the melting point is 186 to 187 °C.
Next, `CCN(CC)CCCN1C(=O)NC(Cc2c[nH]c3ccc(OC)cc23)C1=O` (centres undefined): 136 °C; `CCC(C)COC(=O)c1ccc(OC(=O)c2ccc(O)cc2)cc1` (centres undefined): 90.8 to 92.6 °C.
Next, `CCc1ccccc1C(Cc1ccccc1NC(=O)C(C)(C)C)NC` (centres undefined): 80 to 81.5 °C.
With `COC(=O)c1c(-c2ccc(Cl)cc2)c2cc(OCc3ccccc3)ccc2c(=O)n1CC(C)C`, the melting point worked out at 166 °C.
For `Cn1c(=O)c(N=C=O)c(-c2ccccc2Cl)c2cc(Cl)ccc21`, the melting point lay within 204 to 206 °C.
Then `O=C(O)C1=Cc2cc(Oc3ccc(C(F)(F)F)cc3)cc(Cl)c2OC1C(F)(F)F` (centres undefined), with 224 to 226 °C; and `CCOc1cc(CCCOc2c(C)cc(-c3noc(C4CC4)n3)cc2C)on1`, with 70 to 71 °C.
Next, `N#CC12CCCC(C1)C1CCC2C1` (centres undefined): 109 to 110 °C; `O=C(O)c1ccc(C(=O)NOCC2CCc3ccccc3C2)cc1` (centres undefined): 203 to 206 °C.
Then `CNc1cc(F)ccc1C(=O)CSC`, with 61.5 to 63 °C.
For the molecule `C=C(Cc1ccc(C=Cc2ccc(CC(=C)C(=O)OCC)cc2)cc1)C(=O)O`, the melting point lay in the range of 123 to 125 °C.
Molecule `C[C@@H](c1ccccc1)N1C[C@H]2CCOC(=O)[C@H]2C1` gave a melting point of 86 to 87 °C.
Then `CCc1[nH]c(=O)[nH]c1C(O)c1ccncc1` (centres undefined), with 234 to 236 °C; and `CC(C)(CO)CNC(=O)c1ccc2c(c1)C(=NNc1ccc(S(N)(=O)=O)cc1)C(=O)N2`, with greater than 230 °C; and `O=C(NCc1ccccn1)Nc1cc(N2CC(CCc3ccccc3)OC2=O)ccn1` (centres undefined), with 194 to 195 °C.
Then `CC(OS(=O)(=O)C(F)(F)F)=C(C(=O)OCc1ccccc1)N1C(=O)[C@@H](N2C(=O)c3ccccc3C2=O)[C@H]1COS(C)(=O)=O`, with 51 to 55 °C; and `CN1CC(C(=O)COC(=O)C(C)(C)C)CC2c3cccc4[nH]cc(c34)CC21` (centres undefined), with 155 to 156 °C.
Next, `Cn1ccc(C(=O)c2sc(NC(=O)c3ccncc3)nc2-c2ccco2)c1`: 209 to 211 °C; `CC(C)(C)c1ccc(OC2CCOC2)c(N)c1` (centres undefined): 79 to 82 °C.
With `CN(Cc1ccc(S(C)(=O)=O)c(S(N)(=O)=O)c1)S(C)(=O)=O`, the melting point was in the range of 165 to 169 °C.
Next, `CCOC(=O)C(=O)c1cn(Cc2ccccc2)c2cc(-c3ccc(C(F)(F)F)cc3)ccc12`: 109 to 110 °C; `CCCNC(=O)c1ccc(C=O)cc1`: 71 to 74 °C.
Take `Cn1c(=O)cc(C(=O)O)c2cc(C(=O)c3ccc(Cl)cc3)ccc21`: the melting point is greater than 260 °C.
`Cc1cc(C)c2oc(S)nc2c1C` showed a melting point of 146 to 147 °C.
`O=c1[nH]ccc2c1c(O)nc1cc(Cl)ccc12` had a melting point of 340 to 342 °C.
Next, `NS(=O)(=O)c1ccc(SCCO)s1`: 46.5 to 47.5 °C.
Then `Cc1ccc(O)c(F)n1`, with 133 to 135 °C.
Next, `O=C(Nc1ccccc1)c1ccc2c(c1)N(C1CC1)C=NS2(=O)=O`: 278 to 281 °C; `Nc1c(Br)cc(Nc2ncnc3cnc(N4CCC(N)CC4)nc23)cc1Br`: 204 to 206 °C; `C=CC(O)c1[nH]c(=O)c2c(ccc3nc(Nc4c(Cl)cccc4Cl)n(C)c32)c1C` (centres undefined): 235 to 236 °C.
The molecule `CC(C)(C)OC(=O)NCCC(=O)NC(CC(=O)OCc1ccccc1)C(=O)NC(Cc1ccccc1)C(=O)OCc1ccccc1` (centres undefined) ({Boc-βAla}-Asp(OBn)-Phe-OBn; configuration not given here) showed a melting point of 124 to 125 °C.
Then `COc1ccc(-c2ccc3cnc(Nc4ccc5c(c4)N(S(C)(=O)=O)CCC5)nn23)cn1`, with 202 to 203 °C; and `Cc1cc(C(=O)N2Cc3cccn3Cc3ccccc32)ccc1NC(=O)c1ccc(Cl)cc1Cl`, with 213 to 215 °C.
In turn, `COC(=O)c1ccc(OCC2CO2)cc1O` (centres undefined) returned a melting point of 53 to 55 °C.
In turn, `CC1=C(N)C(C)C2CC(C)(CC3=CCN(c4ccc(-n5ccnc5)cc4)CC3)OC2=C1C` (centres undefined) displayed a melting point of 161 to 163 °C.
Turning to `O=C(c1cccc(Br)c1)C(Br)C(Br)c1ccc(Br)cc1` (centres undefined), the melting point was found to be 158 °C.
Next, `CC(C#CC1CC(Oc2ccc(F)cc2Cl)C1)N(O)C(N)=O` (single isomer, unassigned; (+)): 160 °C; `NC(=O)C1(Cl)CC2C3CC4C2C4C31` (centres undefined): 124 to 126 °C.
Next, `COC(C)(C)c1ccc(Cl)c2nc3n(c12)CCCN3c1ccc(Cl)cc1Cl`: 203 to 204 °C; `O=C(NCC1CC(=O)N(Cc2ccccc2)c2ccccc2N1C(=O)CN1C(=O)c2ccccc2C1=O)OCc1ccccc1` (centres undefined): 219 to 221 °C.
